Source: the supplement of paper PMC11208160

Test: recombinant barcode read abundance after kanamycin selection (control-corrected) (log10(CPM+1)); higher = more efficient recombination; sequences stand for … in AGTGCAGAGAAAATCGGCCAGTTTTCTCTGCCTGCAGTCCGCATGCCGT…AGATTTATGCAGCGGACTGCCTTTCTCCCAAAGTGATAAACCGGACAGTATCATGGACCGGTTTTCCCGGTAATCCGTATTTGCAAGGTTGGTTTCACT; site = the 11-nt target
Method in brief: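 In a pooled screen in E. coli, targets were paired with target-binding loops of the IS621 bridge RNA. Each oligo carried a promoter, a target, a barcode and the first 104 bridge RNA bases driven by J23119, and was Gibson-cloned into a vector holding the remaining 73 bp and a T7-inducible recombinase before co-electroporation with a donor plasmid. Duplicate platings went onto chloramphenicol/ampicillin LB agar as the control or onto chloramphenicol/ampicillin/kanamycin with 0.1 mM IPTG. Recombination efficiency is the averaged, control-corrected count per million of barcodes at recombinant junctions, given as log10(CPM+1).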
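Note: IS621 recombinase and bridge RNA in Escherichia coli cells.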

Sequence	recombinant barcode read abundance (log10)
TCTTGTCCTTGGGTTCTAACCTGTTGCGC (site TCTTGTCCTGC)	0.385
TCTTGTCCTTGGGTTCTAACCTGTTGCGC (site TCTTGTCCTTC)	0.0581
TCTTGTCCTTGGGTTCTAACCTGTTGCGT (site TCTTGTCCTAC)	0.682
TCTTGTCCTTGGGTTCTAACCTGTTGCGT (site TCTTGTCCTCC)	0.0386
TCTTGTCCTTGGGTTCTAACCTGTTGCGT (site TCTTGTCCTGC)	0.172
TCTTGTCCTTGGGTTCTAACCTGTTGCGT (site TCTTGTCCTTC)	0.0168
TGAAACGCTTGGGTTCTAACCTGTTGCTT (site TGAAACGCTAA)	1.2
TGAAACGCTTGGGTTCTAACCTGTTGCTT (site TGAAGCCCTAA)	0.0163
TGAAAGCCTTGGGTTCTAACCTGTTGCTT (site TGAAAGCCTAA)	0.215
TGAAAGCCTTGGGTTCTAACCTGTTGCTT (site TGGAAGTCTAA)	0.0888
TGAAGCCCTTGGGTTCTAACCTGTTGCTT (site TGAAACGCTAA)	0.179
TGAAGCCCTTGGGTTCTAACCTGTTGCTT (site TGAAGCCCTAA)	0.321
TGAAGTACTTGGGTTCTAACCTGTTGCCT (site TGAAATACTAG)	0.35
TGAAGTACTTGGGTTCTAACCTGTTGCCT (site TGAACTACTAG)	0.169
TGAAGTACTTGGGTTCTAACCTGTTGCCT (site TGAAGTACTAG)	0.257
TGAAGTACTTGGGTTCTAACCTGTTGCCT (site TGAATTACTAG)	0
TGAATGACTTGGGTTCTAACCTGTTGCCT (site TGAATGACTAG)	0.544
TGAATGACTTGGGTTCTAACCTGTTGCCT (site TGGATGCCTAG)	0.0355
TGAATGTCTTGGGTTCTAACCTGTTGCCT (site TGAAAGTCTAG)	0.0491
TGAATGTCTTGGGTTCTAACCTGTTGCCT (site TGAACGTCTAG)	0.0549

Sequence	recombinant barcode read abundance (log10)
TGAATGTCTTGGGTTCTAACCTGTTGCCT (site TGAAGGTCTAG)	0.0166
TGAATGTCTTGGGTTCTAACCTGTTGCCT (site TGAATGTCTAG)	1.23
TGACACACTTGGGTTCTAACCTGTTGCTG (site TGACACACTCA)	2.22
TGACACACTTGGGTTCTAACCTGTTGCTG (site TGAGACACTCA)	0.127
TGACAGTCTTGGGTTCTAACCTGTTGCAG (site CACTTAACTTG)	0.0862
TGACAGTCTTGGGTTCTAACCTGTTGCAG (site TGACAGTCTCT)	1.42
TGACATGCTTGGGTTCTAACCTGTTGCCT (site TGAAATGCTAG)	0.108
TGACATGCTTGGGTTCTAACCTGTTGCCT (site TGACATGCTAG)	1.37
TGACATGCTTGGGTTCTAACCTGTTGCCT (site TGAGATGCTAG)	0.0442
TGACATGCTTGGGTTCTAACCTGTTGCCT (site TGATATGCTAG)	0.172
TGACCCTCTTGGGTTCTAACCTGTTGCCT (site AGACCCTCTAG)	0.703
TGACCCTCTTGGGTTCTAACCTGTTGCCT (site CGACCCTCTAG)	0.465
TGACCCTCTTGGGTTCTAACCTGTTGCCT (site GGACCCTCTAG)	0.0227
TGACCCTCTTGGGTTCTAACCTGTTGCCT (site TGACCCTCTAG)	2.39
TGACGTCCTTGGGTTCTAACCTGTTGCAT (site TGACGTCCTAA)	0.0504
TGACGTCCTTGGGTTCTAACCTGTTGCAT (site TGACGTCCTAC)	0.0943
TGACGTCCTTGGGTTCTAACCTGTTGCAT (site TGACGTCCTAG)	0.0926
TGACGTCCTTGGGTTCTAACCTGTTGCAT (site TGACGTCCTAT)	0.695
TGACGTCCTTGGGTTCTAACCTGTTGCTT (site TGACGTCCTAA)	0.293
TGACGTCCTTGGGTTCTAACCTGTTGCTT (site TGACGTCCTAC)	0.033

Sequence	recombinant barcode read abundance (log10)
TGACGTCCTTGGGTTCTAACCTGTTGCTT (site TGACGTCCTAG)	0.122
TGACGTCCTTGGGTTCTAACCTGTTGCTT (site TGACGTCCTAT)	0.251
TGAGATGCTTGGGTTCTAACCTGTTGCCT (site TGAAATGCTAG)	0.199
TGAGATGCTTGGGTTCTAACCTGTTGCCT (site TGACATGCTAG)	0.026
TGAGATGCTTGGGTTCTAACCTGTTGCCT (site TGAGATGCTAG)	1.72
TGAGATGCTTGGGTTCTAACCTGTTGCCT (site TGATATGCTAG)	0.124
TGAGATTCTTGGGTTCTAACCTGTTGCAT (site TGAGATTCTAT)	1.55
TGAGATTCTTGGGTTCTAACCTGTTGCAT (site TGTGATCCTAT)	0.0159
TGAGCGGCTTGGGTTCTAACCTGTTGCCT (site TGAGAGGCTAG)	0.143
TGAGCGGCTTGGGTTCTAACCTGTTGCCT (site TGAGCGGCTAG)	0.438
TGAGCGGCTTGGGTTCTAACCTGTTGCCT (site TGAGGGGCTAG)	0.00469
TGAGCGGCTTGGGTTCTAACCTGTTGCCT (site TGAGTGGCTAG)	0.0667
TGAGTACCTTGGGTTCTAACCTGTTGCTT (site TGAGTACCTAA)	1.39
TGAGTACCTTGGGTTCTAACCTGTTGCTT (site TGAGTCCCTAA)	0.0336
TGAGTACCTTGGGTTCTAACCTGTTGCTT (site TGAGTGCCTAA)	0.856
TGAGTACCTTGGGTTCTAACCTGTTGCTT (site TGAGTTCCTAA)	0.144
TGAGTCCCTTGGGTTCTAACCTGTTGCAG (site AAGTGGTCTTA)	0.149
TGAGTCCCTTGGGTTCTAACCTGTTGCAG (site TGAGTCCCTCT)	2.79
TGAGTCCCTTGGGTTCTAACCTGTTGCTA (site TGAGTCCCTTA)	2.27
